Measurements as given in US9783537B2, “3-(4-ethylnylphenyl) pyridopyrimidinone compounds and process for preparation thereof useful as potential anticancer agents” (Council of Scientific & Industrial Research, priority 2013, dated 2017).
Read-outs that look alike come from different tables or passages of the source.

Assays:
[1] = tested on: CCRF-CEM; test: SRB 48 h growth assay, Leukemia CCRF-CEM; format: cell-based, human
[2] = tested on: K-562; test: SRB 48 h growth assay, Leukemia K-562; format: cell-based, human
[3] = tested on: RPMI-8226; test: SRB 48 h growth assay, Leukemia RPMI-8226; format: cell-based, human; conditions: RPMI-8226, Leukemia
[4] = tested on: NCI-H226; test: SRB 48 h growth assay, Non-small Cell Lung NCI-H226; format: cell-based, human
[5] = tested on: NCI-H23; test: SRB 48 h growth assay, Non-small Cell Lung NCI-H23; format: cell-based, human
[6] = tested on: HCT-116; test: SRB 48 h growth assay, Colon HCT-116; format: cell-based, human; conditions: HCT-116, Colon
[7] = tested on: KM12; test: SRB 48 h growth assay, Colon KM12; format: cell-based, human
[8] = tested on: SW-620; test: SRB 48 h growth assay, Colon SW-620; format: cell-based, human; conditions: SW-620, Colon
[9] = tested on: LOX IMVI; test: SRB 48 h growth assay, Melanoma LOX IMVI; format: cell-based, human
[10] = tested on: M14; test: SRB 48 h growth assay, Melanoma M14; format: cell-based, human
[11] = tested on: MDA-MB-435; test: SRB 48 h growth assay, Melanoma MDA-MB-435; format: cell-based, human; conditions: MDA-MB-435, Melanoma
[12] = tested on: SK-MEL-5; test: SRB 48 h growth assay, Melanoma SK-MEL-5; format: cell-based, human; conditions: SK-MEL-5, Melanoma
[13] = tested on: UACC-62; test: SRB 48 h growth assay, Melanoma UACC-62; format: cell-based, human; conditions: UACC-62, Melanoma
[14] = tested on: OVCAR-3; test: SRB 48 h growth assay, Ovarian OVCAR-3; format: cell-based, human; conditions: OVCAR-3, Ovarian
[15] = tested on: OVCAR-8; test: SRB 48 h growth assay, Ovarian OVCAR-8; format: cell-based, human; conditions: OVCAR-8, Ovarian
[16] = tested on: 786-0; test: SRB 48 h growth assay, Renal 786-0; format: cell-based, human; conditions: 786-0, Renal
[17] = tested on: DU-145; test: SRB 48 h growth assay, Prostate DU-145; format: cell-based, human; conditions: DU-145, Prostate
[18] = tested on: MCF7; test: SRB 48 h growth assay, Breast MCF7; format: cell-based, human
[19] = tested on: HS578T; test: SRB 48 h growth assay, Breast HS578T; format: cell-based, human
[20] = tested on: BT-549; test: SRB 48 h growth assay, Breast BT-549; format: cell-based, human; conditions: BT-549, Breast
[21] = tested on: MDA-MB-468; test: SRB 48 h growth assay, Breast MDA-MB-468; format: cell-based, human; conditions: MDA-MB-468, Breast
[22] = tested on: six leukemia cancer cell lines (CCRF-CEM, HL-60, K-562, MOLT-4, SR and RPMI-8226); test: in vitro anticancer activity, leukemia panel; format: cell-based; conditions: Homo sapiens, exposure at least 48 h, read-out: GI50, range over panel
[23] = tested on: seven colon cancer cell line (COLO 205, HCC-2998, HCT-116, HCT-15, HT29, KM12 and SW-620); test: in vitro anticancer activity, colon panel; format: cell-based; conditions: Homo sapiens; seven colon cancer cell lines, exposure at least 48 h; read-out: GI50, range over panel
[24] = tested on: six CNS cancer cell line (SF-268, SF-295, SF-539, SNB-19, SNB-75 and U251); test: in vitro anticancer activity, CNS panel; format: cell-based; conditions: Homo sapiens; six CNS cancer cell lines, exposure at least 48 h; read-out: GI50, range over panel
[25] = in vitro anticancer activity, melanoma panel; format: cell-based; conditions: Homo sapiens; nine melanoma cell lines, exposure at least 48 h; read-out: GI50, range over panel
[26] = tested on: two prostate cancer cell line (PC-3, DU-145); test: in vitro anticancer activity, prostate panel; format: cell-based; conditions: Homo sapiens; two prostate cancer cell lines, exposure at least 48 h; read-out: GI50, range over panel
[27] = Homo sapiens, read-out: Growth Inhibition GI50
[28] = Homo sapiens, read-out: Log10 GI50 (converted)
[29] = Homo sapiens, read-out: Log10 LC50 (converted)

With `C#Cc1ccc(-n2c(/C=C/c3ccc(O)cc3)nc3ncccc3c2=O)cc1` [4b, (E)-3-(4-Ethynylphenyl)-2-(4-hydroxystyryl)pyrido[2,3-d]pyrimidin-4(3H)-one] the “Log10 TGI50” value [1] was >−4.00, the CC50 ([1]; Homo sapiens, CCKF-CEM, read-out: Log10 LC50 (converted)) was > 100 µM and the GI50 [1, 27] was 3.3 µM. The GI50 [1, 28] was 3.31 µM, the GI50 ([2]; Homo sapiens, K562, K-562, Leukemia, read-out: Growth Inhibition GI50) was 4.33 µM and the GI50 ([2]; Homo sapiens, K562, K-562, Leukemia, read-out: Log10 GI50 (converted)) was 4.37 µM. The CC50 ([2]; Homo sapiens, K562, K-562, Leukemia, read-out: Log10 LC50 (converted)) was > 100 µM, the “Log10 TGI50” value ([2]; K-562, Leukemia) was >−4.00 and the GI50 [3, 27] was 3.41 µM. For the same compound, the GI50 [3, 28] was 3.39 µM, the CC50 [3, 29] was > 100 µM and the “Log10 TGI50” value [3] was >−4.00. For the same compound, the “Log10 TGI50” value [4] was −4.88, the GI50 [4, 27] was 2.58 µM and the GI50 [4, 28] was 2.57 µM. For the same compound, the LC50 [4, 29] was > 100 µM, the “Log10 TGI50” value [5] was >−4.00 and the GI50 [5, 27] was 5.52 µM. The GI50 [5, 28] was 5.5 µM, the LC50 [5, 29] was > 100 µM and the “Log10 TGI50” value [6] was >−4.00. For the same compound, the GI50 [6, 27] was 5.07 µM, the GI50 [6, 28] was 5.01 µM and the CC50 [6, 29] was > 100 µM. The “Log10 TGI50” value [7] was −4.22, the GI50 [7, 27] was 3.81 µM and the GI50 [7, 28] was 3.8 µM. For the same compound, the CC50 [7, 29] was > 100 µM, the GI50 [8, 27] was 3.55 µM and the GI50 [8, 28] was 3.55 µM. For the same compound, the CC50 [8, 29] was > 100 µM, the “Log10 TGI50” value [8] was >−4.00 and the “Log10 TGI50” value [9] was >−4.00. The GI50 [9, 27] was 5.35 µM, the GI50 [9, 28] was 5.37 µM and the CC50 [9, 29] was > 100 µM. The “Log10 TGI50” value [10] was −5.09, the GI50 [10, 27] was 2.7 µM and the GI50 [10, 28] was 2.69 µM. For the same compound, the CC50 [10, 29] was > 100 µM, the GI50 [11, 27] was 1.6 µM and the GI50 [11, 28] was 1.58 µM. The CC50 [11, 29] was > 100 µM, the “Log10 TGI50” value [11] was −5.39 and the GI50 [12, 27] was 2.24 µM. For the same compound, the GI50 [12, 28] was 2.24 µM, the CC50 [12, 29] was > 100 µM and the “Log10 TGI50” value [12] was −5.13. The GI50 [13, 27] was 4.01 µM, the GI50 [13, 28] was 3.98 µM and the CC50 [13, 29] was > 100 µM. The “Log10 TGI50” value [13] was >−4.00, the GI50 [14, 27] was 2.41 µM and the GI50 [14, 28] was 2.4 µM. The CC50 [14, 29] was > 72.4 µM, the “Log10 TGI50” value [14] was −5.24 and the GI50 [15, 27] was 4.39 µM. The GI50 [15, 28] was 4.37 µM, the CC50 [15, 29] was > 100 µM and the “Log10 TGI50” value [15] was −4.33. The “Log10 TGI50” value [16] was >−4.30, the GI50 [16, 27] was 4.88 µM and the GI50 [16, 28] was 4.9 µM. For the same compound, the CC50 [16, 29] was > 100 µM, the “Log10 TGI50” value [17] was −4.12 and the GI50 [17, 27] was 4.1 µM. The GI50 [17, 28] was 4.07 µM, the CC50 [17, 29] was > 100 µM and the “Log10 TGI50” value [18] was >−4.00. The GI50 [18, 27] was 3.04 µM, the GI50 [18, 28] was 3.02 µM and the CC50 [18, 29] was > 100 µM. The “Log10 TGI50” value [19] was −4.52, the GI50 ([19]; Homo sapiens, Hs-578T, read-out: Growth Inhibition GI50) was 3.24 µM and the GI50 ([19]; Homo sapiens, Hs-578T, read-out: Log10 GI50 (converted)) was 3.24 µM. For the same compound, the CC50 ([19]; Homo sapiens, Hs-578T, read-out: Log10 LC50 (converted)) was > 100 µM, the “Log10 TGI50” value [20] was −4.06 and the GI50 [20, 27] was 7.51 µM. The GI50 [20, 28] was 7.59 µM, the CC50 [20, 29] was > 100 µM and the GI50 [21, 27] was 2.31 µM. For the same compound, the GI50 [21, 28] was 2.29 µM, the CC50 [21, 29] was > 100 µM and the “Log10 TGI50” value [21] was −5.15. The GI50 [22] was 3.58 to 5.55 µM, the GI50 [23] was 3.19 to 27.5 µM and the GI50 [24] was 3.88 to 16.2 µM. It also gave a GI50 [25] of 1.78 to 34.6 µM and a GI50 [26] of 3.96 to 5.36 µM.
